{"source": "patent US20250091994A1", "about": "“RAS/RAF BINDING INHIBITOR COMPOUND” (NATIONAL UNIVERSITY CORPORATION KOBE UNIVERSITY, priority 2021, published 2025)", "assay_type_in_all_cases": "cell-based", "key": {"[1]": {"tested_on": "acute lymphoblastic leukemia cells CCRF-CEM (K-RasG12D)", "assay": "Cell growth inhibition, suspension cells CCRF-CEM", "details": "Homo sapiens, 1 μM, 72 hours, read-out: CCRF-CEM (KRasG12D) % inhibition at 1 μM", "summary_of_the_method": "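Suspension cells, 2 to 4×10^4 per well, cultured with compound in medium with 0.5% FBS (1% DMSO final) for 72 h at 37° C, 5% CO2. Viable cells counted with Cell Counting Reagent; inhibition calculated relative to controls.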"}, "[2]": {"tested_on": "large bowel cancer cells SW480 (K-RasG12V)", "assay": "Cell growth inhibition, adherent cells SW480", "details": "Homo sapiens, 72 hours, read-out: SW480 (KRasG12V) % inhibition at 10 μM", "experimental": "The cell growth inhibitory activity of the compound of the present invention on human culture cells having active-type mutation in Ras was evaluated by the below-mentioned method using suspension cancer cells {acute lymphoblastic leukemia cells CCRF-CEM (K-RasG12D), promyelocytic leukemia cells HL60 (N-RasQ61L), acute lymphoblastic leukemia cells MOLT4 (N-RasG12C), and small cell lung cancer cells SHP77 (K-RasG12V)} and adherent cancer cells {large bowel cancer cells SW480 (K-RasG12V) and large bowel cancer cell SW620 (K-RasG12V)}.\n(Case of adherent cells) The cells suspended in a medium containing 10% FBS (1 to 2×10^4 cells/well) were seeded on a 96-well plate, and were then cultured at 37° C. in the presence of […]. Thereafter, the medium was exchanged with a medium containing […], to which each compound solution (final DMSO concentration: […]) had been added, and the cells were then cultured at 37° C. in the presence of […] for 72 hours.\n(§1) Thereafter, the number of viable cells was measured using Cell Counting Reagent (Nacalai Tesque) in accordance with the manufacturer's instructions. Inhibition by the test compound was determined according to the following equation: […]"}, "[3]": {"tested_on": "Vemurafenib-resistant malignant melanoma cells HT 144R (BRafV600E)", "assay": "Cell growth inhibition, drug-resistant malignant melanoma HT144R", "details": "Homo sapiens, in the presence of 1 μM PLX (Vemurafenib), 72 hours", "experimental": "The human malignant melanoma cell lines A375 and HT 144, each having BRafV600E mutation, were cultured in a medium containing 10% FBS at 37° C. in the presence of 5% CO2. At the time point in which the cells became confluent, 1 μM Vemurafenib, a BRaf inhibitor, was added to the medium, and the cells were then cultured in the presence of Vemurafenib for 1 month or more (during which the medium was exchanged every 1 week), so as to acquire Vemurafenib-resistant malignant melanoma cells A375R and HT 144R. The resulting resistant cells were suspended in a medium containing 10% FBS, and then seeded on a 96-well plate to an amount of 1 to 2×10^4 cells/well. The cells were cultured at 37° C. in the presence of 5% CO2 overnight. Thereafter, the medium was exchanged with a medium containing 0.5% FBS, to which each compound solution (final DMSO concentration: 1%) and 1 μM Vemurafenib had been added, and the cells were then cultured at 37° C. in the presence of 5% CO2 for 72 hours.\nas §1\nHereafter, Inhibition (%) by 3.3 μM compound is shown."}}}
{"smiles": "CC(=O)N1/C(=C\\c2nc3cc(C(=O)N4CCOCC4)ccc3s2)C(=O)c2ccccc21", "note": "[Example 47, (Z)-1-acetyl-2-((5-(morpholine-4-carbonyl)benzo [d]thiazol-2-yl)-methylene)-indolin-3-one]", "values": [{"measurement": "inhibition at 1 µM", "setting": "[1]", "result": 74, "unit": "%"}, {"measurement": "inhibition at 10 µM", "setting": "[2]", "result": 51, "unit": "%"}, {"measurement": "inhibition at 3.3 µM", "setting": "[3]", "result": 92, "unit": "%"}]}
